Measurements as given in publication PMC11207065, “Abietane Diterpenes from Medusantha martiusii and Their Anti-Neuroinflammatory Activity” (Molecules, 2024).

Tests used:
Type in all cases: cell-based
[1] = Cell viability (MTT assay) in BV2 cells; details: mouse, BV2 microglial cells, mean ± SEM (n = 5)
Description: The cytotoxicity of compounds 1–7 was evaluated using the MTT (3-(4,5-dimethylthiazol-2-yl)-2,5-diphenyltetrazolium bromide) assay. The microglial BV2 cell line was obtained from the Rio de Janeiro Cell Bank (BCRJ), Brazil. The cells were cultured in Roswell Park Memorial Institute medium (RPMI; Sigma Aldrich, St. Louis, MO, USA) supplemented with 10% fetal bovine serum (FBS; Gibco, Grand Island, NY, USA) and 1% penicillin-streptomycin (Sigma Aldrich) at 37 °C with 5% CO2. Cells were seeded into 96-well plates at 1 × 10^5 cells/mL and incubated overnight. After that, the cells were incubated with compounds 1 to 7 (12.5, 25, or 50 μM) in five replicates for 24 h. Then, 110 μL of the supernatant were removed, and 10 μL of MTT solution (5 mg/mL) (Sigma Aldrich, St. Louis, MO, USA) were added. The plates were further incubated for four hours, followed by the addition of sodium dodecyl sulfate (SDS) (100 µL/well) to dissolve the formazan. Optical densities were measured using a spectrophotometer (BioTek Instruments microplate reader, Sinergy HT, Winooski, VT, USA) at a wavelength of 570 nm.

[2] = system: nitric oxide production in LPS and IFN-γ-stimulated BV2 cells; test: Nitric oxide (nitrite, Griess method) measurement in LPS and IFN-γ-stimulated BV2 cells; details: 24 h; for Effect on nitrite (NO) levels versus control group: LPS and IFN-γ-stimulated BV2 cells; for IC50: Mus musculus, BV-2, LPS (500 ng/mL) and IFN-γ (5 ng/mL)-stimulated BV2 cells, 3.125–25 µM, mean ± SEM, read-out: IC50 on nitric oxide production inhibition
Description: (§1) To determine the NO and TNF-α levels, BV2 cells were seeded in 96-well plates (1 × 10^6 cells/mL) in RPMI medium supplemented with 10% FBS and 1% penicillin-streptomycin in a 5% CO2 incubator at 37 °C. After four hours, the cells were exposed to LPS (500 ng/mL, Sigma Aldrich) and IFN-γ (5 ng/mL, Thermo Fisher) in the absence or presence of compounds 1 to 7 at a final concentration of 12.5 µM (for NO and TNF-α measurement) or 3.125–25 µM (to calculate the IC50 values on NO production inhibition), in five replicates. Quercetin (20 µM) was used as a positive control. After 24 h, cell-free supernatants were collected for NO quantification using the Griess method or stored at −80 °C for cytokine concentration determination. The TNF-α concentrations in the BV2 cell culture supernatants were assessed via enzyme-linked immunosorbent assay (ELISA) with an Invitrogen kit (Thermo Fisher, Viena, Austria).

[3] = system: TNF-α release from LPS and IFN-γ-stimulated BV2 cells; test: TNF-α measurement (ELISA) in LPS and IFN-γ-stimulated BV2 cells; details: 12.5 µM, 24 h
Description: as §1

Structure (SMILES)	viability at 24 h, 12.5 µM [1]	viability at 24 h, 25 µM [1]	viability at 24 h, 50 µM [1]	Effect on nitrite (NO) levels versus control group ([2]; 12.5 µM)	IC50 [2]	Effect on TNF-α levels versus control group [3]	Effect on nitrite (NO) levels versus control group ([2]; 20 µM (positive control))
CC(C)C1=CC(=O)C2=C(C1=O)C(O)CC1C2(C)CC(O)C(O)C1(C)C (stereo not shown) [Compound 1, Medusanthol A]	88 ± 2.57%	85.1 ± 1.54%	76.3 ± 2.16%	significantly reduced nitrite levels	3.12 ± 0.75 µM	significantly reduced TNF-α levels	–
CC(C)c1cc2c(cc1O)[C@@]1(C)C[C@@H](O)CC(C)(C)[C@@H]1CC2=O [Compound 6, 2α-hydroxysugiol]	85.7 ± 1.11%	81.7 ± 1.37%	66.8 ± 3.61%	No significant effect	–	–	–
CC(C)c1cc2c(cc1O)C1(C)CC(O)C(O)C(C)(C)C1CC2=O (stereo not shown) [Compound 2, Medusanthol B]	81.93 ± 0.65%	85.84 ± 0.85%	75 ± 3.11%	significantly reduced nitrite levels	15.5 ± 7.56 µM	significantly reduced TNF-α levels	–
O=c1c(O)c(-c2ccc(O)c(O)c2)oc2cc(O)cc(O)c12 [Quercetin, quercetin, reference compound]	–	–	–	–	11.8 ± 1.5 µM	–	significantly reduced nitrite levels
CC(=O)OC1CC(C)(C)C2CC3OC(=O)C2(C1)c1cc(O)c(C(C)C)cc1O3 (stereo not shown) [Compound 7, Medusanthol E]	82.74 ± 0.62%	84.9 ± 1.4%	81.8 ± 1.24%	significantly reduced nitrite levels	–	–	–
CC(C)c1cc2c(cc1O)[C@@]1(C)C[C@@H](O)CC(C)(C)[C@@H]1CC2 [Compound 4, salviol]	92.29 ± 0.6%	85.41 ± 0.82%	73.6 ± 2.73%	significantly reduced nitrite levels	–	–	–
CC(C)c1cc2c(cc1O)C1(C)CC(O)C(O)C(C)(C)C1CC2 (stereo not shown) [Compound 3, Medusanthol C]	87.4 ± 2.35%	82.2 ± 0.96%	76.4 ± 3.14%	significantly reduced nitrite levels	–	–	–
CC(=O)OC1CC(C)(C)C2CCc3cc(C(C)C)c(O)cc3C2(C(=O)O)C1 (stereo not shown) [Compound 5, Medusanthol D]	86.2 ± 4.53%	86.8 ± 2.52%	82.9 ± 3.63%	No significant effect	–	–	–
